These results are taken from patent US20230270752A1, “METHODS OF TREATING PHELAN MCDERMID SYNDROME USING FARNESYL DIBENZODIAZEPINONES” (AMO Pharma Ltd., priority 2017, published 2023).

“Also recorded” adds a separate entry of the source.

The subject of experiment [1] is Shank3b KO transgenic model of PMS. Nature of the experiment: Light dark box test (anxiety). The class given is in vivo, mice. The following applies: single dose 30 mg/kg i.p., 4 hours before testing. On the procedure: (§1) Shank3b^-/- homozygous mice with deletions of exons 13-16, initially obtained from the Jackson Laboratory, and wild type (WT) littermates were generated on a C57BL/6J background and repeatedly backcrossed onto a C57BL/6J background for more than eight generations. The resulting Shank3 knockout (KO) mice were housed in groups of the same genotype in a temperature and humidity controlled room with a 12-h light-dark cycle (lights on 7 am to 7 pm). Room temperature and humidity were recorded continuously in the holding room. Testing was conducted during the light phase. Food and water were available ad libitum. Testing was conducted on Shank3 knockout mice and their wild type littermates, with N = 10 mice per treatment group, tested at two months of age during behavioral experiments. Mice were housed in commercial plastic cages and experiments were conducted in line with the requirements of the UK Animals (Scientific Procedures) Act, 1986. All experiments were conducted with experimenters blind to genotype and drug treatment. Animals were allowed a minimum acclimatization period of one week prior to performing any experiment. Only healthy animals were used. No prophylactic or therapeutic treatment was to be administered during the acclimatization period. […]

Experiment [2] shares this test system. Nature of the experiment: Excessive self-grooming test (self-injurious behavior). To be noted: single dose 30 mg/kg i.p. Type of experiment: in vivo, mice. As to the method:
as §1, with “experiment.” for “experiment. Only healthy animals were used. No prophylactic or therapeutic treatment was to be administered during the acclimatization period.”
Day 2: Excessive grooming leading to skin lesions. […] During this test, time spent grooming in all sequences: face-wiping, scratching/rubbing of head and ears, and full-body grooming was scored by an observer blind to genotype during the scoring.

For experiment [3] the test system is unchanged. Kind of experiment: Social recognition and response to social novelty test. Type of experiment: in vivo, mice. To be noted: single dose 30 mg/kg i.p. As to the method:
as §1

Experiment [4] shares this test system. Nature of the experiment: Beam walking test (sensory motor function). Type of experiment: in vivo, mice. The following applies: single dose 30 mg/kg i.p. On the procedure: as §1
Day 4: Sensory motor function as assessed by beam walking tests. […]

The test system is the same in experiment [5]. Nature of the experiment: Marble burying test (species typical behaviors). Type of experiment: in vivo, mice. To be noted: single dose 30 mg/kg i.p. On the procedure:
as §1
Day 5: Activities of daily living / species typical behaviors as assessed by marble burying. […]

Experiment [6] has the same test system. Kind of experiment: Audiogenic seizure threshold test. Type of experiment: in vivo. To be noted: Shank3b KO mice, single dose 30 mg/kg i.p., 124 db 60 s stimulus. On the procedure:
as §1
Seizure threshold as assessed by audiogenic seizures was assessed in a separate cohort with N = 10 per group. […]

Experiment [7] concerns Shank3 knockout transgenic mouse model of Phelan McDermid Syndrome. Kind of experiment: Behavioral testing battery overall (five days after single dose). Type of experiment: in vivo, mice. As to the method:
Shank3b^-/- homozygous mice with deletions of exons 13-16, initially obtained from the Jackson Laboratory, and wild type (WT) littermates were generated on a C57BL/6J background and repeatedly backcrossed onto a C57BL/6J background for more than eight generations. The resulting Shank3 knockout (KO) mice were housed in groups of the same genotype in a temperature and humidity controlled room with a 12-h light-dark cycle (lights on 7 am to 7 pm). Room temperature and humidity were recorded continuously in the holding room. Testing was conducted during the light phase. Food and water were available ad libitum. Testing was conducted on Shank3 knockout mice and their wild type littermates, with N = 10 mice per treatment group, tested at two months of age during behavioral experiments. Mice were housed in commercial plastic cages and experiments were conducted in line with the requirements of the UK Animals (Scientific Procedures) Act, 1986. All experiments were conducted with experimenters blind to genotype and drug treatment. Animals were allowed a minimum acclimatization period of one week prior to performing any experiment. Only healthy animals were used. No prophylactic or therapeutic treatment was to be administered during the acclimatization period.
AMO-01 from AMO Pharma Ltd was administered to mice as follows: • A. AMO-01 at a single dose of 30 mg/kg intraperitoneally in a vehicle of ethanol, PEG 400 and polysorbate 80 and 5% dextrose • B. Vehicle dosed intraperitoneally as 15 ml/kg Groups of N = 10 mice were treated 4 hours before testing on the first day of testing. Five days of testing were undertaken following the single intraperitoneal dose administered on Day 1.
The following groups were studied: • 1. Shank3b^-/- knockout mice + vehicle, N = 10 • 2. Shank3b^-/- knockout mice + AMO-01 30 mg/kg i.p., N = 10 • 3. Wild Type litter mates + vehicle, N = 10 • 4. Wild Type litter mates + AMO-01 30 mg/kg i.p., N = 10
The following tests were administered.

Experiment [8] concerns person with a genetically confirmed diagnosis of Phelan McDermid Syndrome. Nature of the experiment: Clinical assessment of seizures and behavior in a Phelan McDermid Syndrome subject. The class given is in vivo. The following applies: human PMS subject. As to the method:
A person with a genetically confirmed diagnosis of Phelan McDermid Syndrome was administered AMO-01.
(§2) The study drug was prepared from a sterile bulk formulation containing 32.8 mg/mL (3.15% w/w) of the active drug substance dissolved in sterile 0.9% saline solution to produce an isotonic final dosing formulation. Each drug product vial contained 70 mg of AMO-01 drug substance in 2.134 mL of formulation (plus 2% overage). This corresponded to a total drug content of 71.4 mg of active drug substance per 2.176 mL of formula. AMO-01 was administered as a single dose via intravenous infusions over a 6 hour period, with the total dose administered as 120 mg/m^2.
Seizure frequency and Visual Evoked Potentials (VEPs) were assessed alongside clinical measures. VEPs provide a noninvasive technique to evaluate the functional integrity of visual pathways in the brain from the retina to the visual cortex via the optic nerve/optic radiations. The VEP is recorded from the head’s surface, over the visual cortex, and is extracted from ongoing EEG through signal averaging. VEPs reflect the sum of excitatory and inhibitory postsynaptic potentials occurring on apical dendrites (Zemon et al., 1986) which modulate excitatory and inhibitory signals received by the pyramidal cells. The major positive and negative peaks and troughs in VEP waveforms reflect different cellular events. The contrast-reversing checkerboard stimulus used in this study produces a positive peak at approximately 60 ms (P0 or P60), reflecting activation of the primary visual cortex from the lateral geniculate nucleus. A negative peak at approximately 75 ms (N0 or N75) reflecting depolarization and glutamatergic postsynaptic activity spreading to the superficial layers of primary visual cortex, and a positive peak at approximately 100 ms (P1 or P100) reflecting superficial hyperpolarization and GABAergic activity (Zemon et al., 1980). VEPs have been used in clinical trials; for example, an antiepileptic drug (gabapentin; Conte et al., 2009) and an infant formula (O′Connor et al., 2009). Both received FDA approval based in part on positive findings from VEP studies. Data from ongoing clinical trials at Mount Sinai provide support for use of VEPs as a measure of treatment response. Assessments of clinical response were made before treatment, after six hours of treatment, and one week, two weeks and four weeks after treatment according to the schematic in FIG. 8.

Experiment [9] has the same test system. Kind of experiment: Visual Evoked Potentials in a Phelan McDermid Syndrome subject. The class given is in vivo. To be noted: human PMS subject, 120 mg/m^2 i.v. over 6 hours. On the procedure:
as §2
Seizure frequency and Visual Evoked Potentials (VEPs) were assessed alongside clinical measures. VEPs provide a noninvasive technique to evaluate the functional integrity of visual pathways in the brain from the retina to the visual cortex via the optic nerve/optic radiations. The VEP is recorded from the head’s surface, over the visual cortex, and is extracted from ongoing EEG through signal averaging. VEPs reflect the sum of excitatory and inhibitory postsynaptic potentials occurring on apical dendrites (Zemon et al., 1986) which modulate excitatory and inhibitory signals received by the pyramidal cells. The major positive and negative peaks and troughs in VEP waveforms reflect different cellular events. […]

Experiment [10] has as its system induced pluripotent stem (IPS) cell lines derived from PMS patients. The following applies: PMS patient-derived IPS cell lines; cited from earlier work.
Experiment [11] deals with Shank3 knockout mouse. To be noted: Shank3 exon 4-9 deletion mouse; cited from earlier work.
The test system of experiment [12] is Shank3 knockout mice. The following applies: placebo controlled, 12 weeks of treatment; cited from earlier work.
The mark [13] stands for this setting: Shank3 knockout mice, 30 mg/kg i.p. single dose.

With `CC(C)=CCC/C(C)=C/CC/C(C)=C/CN1C(=O)c2cccc(O)c2Nc2c(O)cc(O)cc21` [AMO-01, 10-farnesyl-4,6,8-trihydroxy-dibenzodiazepin-11-one], in [1] (Shank3b-/- KO mice, Day 1), the “Anxiety deficit in light dark box test” value is “significantly reduced the deficit shown in Shank3b^-/- mice (p <0.0001) although this reversal was not complete”. The “Effect on light dark box anxiety behavior” value in experiment [1] (Wild Type mice) is “no significant effect”. For the same compound, the Excessive self-grooming deficit result in [2] (Shank3b-/- KO mice, Day 2) is “significantly reduced the deficit shown in Shank3b^-/- mice (p <0.0001). This reversal was complete”. Also, the Effect on self-grooming result in experiment [2] (Wild Type mice) is reported as “no significant effect”. The “Response to social novelty (time in interaction with familiar or novel mouse)” value in experiment [3] (Shank3b KO mice, Day 3, 30 mg/kg) is recorded as “rescue of response to social novelty; also recorded: normalizes the differential response to social novelty”. In experiment [3] (Wild Type mice), the “Response to social novelty (time in interaction with familiar or novel mouse)” value is listed as “not affected by treatment”. Further, the Beam walking deficit result in experiment [4] (Shank3b-/- KO mice, Day 4) is “significantly reduced the deficit shown in Shank3b^-/- mice (p <0.0001). This reversal was complete”. Also, in experiment [4] (Wild Type mice), the “Effect on beam walking behavior” value is on record as “no significant effect”. Moreover, in [5] (Shank3b-/- KO mice, Day 5), the Marble burying deficit entry was “significantly reduced the deficit shown in Shank3b^-/- KO mice (p <0.0001). This reversal was complete”. In addition, the “Effect on marble burying behavior” value in [5] (Wild Type mice) is “no significant effect”. The Audiogenic seizure threshold result in experiment [6] is reported as “rescue of lowered audiogenic seizure threshold”. Moreover, in experiment [7] (setting [13]), the “Deficits across anxiety, grooming, sociability, sensori-motor and species typical behaviour domains” value is “reversed deficits in all of these domains”; the “Duration of rescue of the phenotype after a single dose” value is given as “persisted for at least five days”. The “Effect across anxiety, grooming, sociability, sensori-motor function, species typical behaviours, cognition” value in experiment [7] (Wild Type mice, 30 mg/kg i.p.) is “without effect”. For the same compound, in experiment [8] (120 mg/m^2 i.v. over 6 hours), the “Recurrence of seizure events after infusion” value is recorded as “Approximately three weeks after the study drug infusion”; the “Social, behavioral and motor changes during seizure-free period” value is “became more social, more engaged (e.g. better eye contact), more cooperative, less restless, and their motor skills also improved”. For the same compound, the “Seizure occurrence after infusion” value in experiment [8] (120 mg/m^2 i.v. over 6 hours, baseline 3 to 4 seizures a week) was “seizures stopped altogether for the next two weeks”. In [8] (single i.v. infusion 120 mg/m^2 over 6 hours), the “Impending seizure episode at time of infusion” value was “appeared to completely abort the impending seizure episode”. In addition, in experiment [9], the “Visual Evoked Potentials before vs six hours after infusion” value is reported as “ameliorated by treatment”.
For “IGF-1: insulin-like growth factor 1 (IGF-1)”, the “Impaired post-synaptic AMPA and NMDA receptor responses / excitatory synapse deficits” value in experiment [10] was “rescued”. Besides, the “Phenotype / deficits of Shank3 knockout mouse” value in experiment [11] was “deficits in this model reversed; also recorded: rescue of the phenotype”. Besides, the “Social, repetitive and aberrant behaviors” value in experiment [12] was “improvements in social, repetitive and aberrant behaviors”.
